Consider two molecules from ChEMBL document CHEMBL3132759, “Design and synthesis of a novel series of cyclohexyloxy-pyridyl derivatives as inhibitors of diacylglycerol acyl transferase 1” (Medchemcomm, 2013).

Data set [1] concerns the target T1, Diacylglycerol O-acyltransferase 1 (Homo sapiens, UniProt O75907).
T1 sequence (O75907 whole entry): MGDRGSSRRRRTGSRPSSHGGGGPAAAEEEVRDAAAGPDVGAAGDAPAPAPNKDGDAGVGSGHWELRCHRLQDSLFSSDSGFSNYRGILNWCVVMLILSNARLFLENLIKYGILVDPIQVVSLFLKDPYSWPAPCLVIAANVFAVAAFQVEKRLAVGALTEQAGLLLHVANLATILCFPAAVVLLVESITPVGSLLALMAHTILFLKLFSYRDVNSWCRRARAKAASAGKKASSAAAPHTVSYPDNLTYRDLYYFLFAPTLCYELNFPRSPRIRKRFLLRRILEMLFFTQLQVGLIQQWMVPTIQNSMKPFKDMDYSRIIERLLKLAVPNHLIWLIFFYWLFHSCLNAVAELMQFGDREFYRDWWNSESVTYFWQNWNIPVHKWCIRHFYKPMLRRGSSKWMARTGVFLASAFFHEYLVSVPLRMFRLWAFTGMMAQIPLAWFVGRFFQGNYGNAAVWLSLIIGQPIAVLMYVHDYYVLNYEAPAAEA
Put plainly: Inhibition of DGAT1 in human HuTu80 cells assessed as reduction in triglyceride levels. It is filed as cell-based.

The target of data set [2] is T2, Diacylglycerol O-acyltransferase 1 (Rattus norvegicus, UniProt Q9ERM3).
T2 sequence (Q9ERM3 whole entry): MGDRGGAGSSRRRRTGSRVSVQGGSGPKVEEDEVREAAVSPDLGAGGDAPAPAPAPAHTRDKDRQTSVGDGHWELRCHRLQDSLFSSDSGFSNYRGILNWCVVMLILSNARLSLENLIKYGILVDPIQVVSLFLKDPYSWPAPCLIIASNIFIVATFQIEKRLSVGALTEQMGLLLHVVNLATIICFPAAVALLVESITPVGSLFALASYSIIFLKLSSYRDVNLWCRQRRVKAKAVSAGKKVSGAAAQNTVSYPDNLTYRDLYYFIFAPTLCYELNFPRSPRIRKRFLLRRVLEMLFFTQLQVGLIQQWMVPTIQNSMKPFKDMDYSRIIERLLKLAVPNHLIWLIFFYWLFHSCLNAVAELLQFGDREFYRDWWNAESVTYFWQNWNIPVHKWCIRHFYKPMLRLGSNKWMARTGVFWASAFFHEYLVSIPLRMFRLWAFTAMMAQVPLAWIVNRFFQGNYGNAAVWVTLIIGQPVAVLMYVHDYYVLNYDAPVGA
Put plainly: Inhibition of DGAT1 in rat microsomes.

The species entered for data set [3] is Rattus norvegicus. Put plainly: Reduction in circulating plasma triglyceride levels in rat by oral lipid tolerance test by PK/PD analysis. The format is functional, organism-based.
The species entered for data set [4] is Rattus norvegicus. In words: Reduction in circulating plasma triglyceride levels in rat by oral lipid tolerance test. The format is functional, organism-based.
The target in a further data set is Cytochrome P450 3A4 (Homo sapiens, UniProt P08684). Put plainly: Inhibition of CYP3A4 (unknown origin). The format is ADME.
Another data set deals with Cytochrome P450 2C19 (Homo sapiens, UniProt P33261). In words: Inhibition of CYP2C19 (unknown origin). The format is ADME.
A further data set deals with Cytochrome P450 2D6 (Homo sapiens, UniProt P10635). In words: Inhibition of CYP2D6 (unknown origin). It is filed as ADME.
The target of the next data set is T3, Cytochrome P450 1A2 (Homo sapiens, UniProt P05177).
T3 sequence (P05177 whole entry): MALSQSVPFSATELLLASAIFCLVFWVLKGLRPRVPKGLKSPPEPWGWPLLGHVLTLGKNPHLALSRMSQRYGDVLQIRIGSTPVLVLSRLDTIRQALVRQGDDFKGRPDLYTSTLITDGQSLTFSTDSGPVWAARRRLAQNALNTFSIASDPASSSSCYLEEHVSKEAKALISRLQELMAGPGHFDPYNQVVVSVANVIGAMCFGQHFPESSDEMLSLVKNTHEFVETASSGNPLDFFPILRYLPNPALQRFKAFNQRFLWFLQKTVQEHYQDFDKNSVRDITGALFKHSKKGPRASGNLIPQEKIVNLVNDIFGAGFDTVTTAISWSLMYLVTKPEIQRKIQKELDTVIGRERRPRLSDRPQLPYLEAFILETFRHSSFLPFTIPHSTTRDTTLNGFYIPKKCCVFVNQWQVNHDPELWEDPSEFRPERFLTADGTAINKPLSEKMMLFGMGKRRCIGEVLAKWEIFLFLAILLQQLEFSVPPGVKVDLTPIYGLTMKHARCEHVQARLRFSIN
Put plainly: Inhibition of CYP1A2 (unknown origin). It is filed as ADME.

For data set [5], the target named is Voltage-gated inwardly rectifying potassium channel KCNH2 (Homo sapiens, UniProt Q12809). In words: Inhibition of human ERG.
Another data set addresses Cytochrome P450 2C9 (Homo sapiens, UniProt P11712). In words: Inhibition of CYP2C9 (unknown origin). It is filed as ADME.
For data set [6], the target named is T4, Diacylglycerol O-acyltransferase 2 (Homo sapiens, UniProt Q96PD7).
T4 sequence (Q96PD7 whole entry): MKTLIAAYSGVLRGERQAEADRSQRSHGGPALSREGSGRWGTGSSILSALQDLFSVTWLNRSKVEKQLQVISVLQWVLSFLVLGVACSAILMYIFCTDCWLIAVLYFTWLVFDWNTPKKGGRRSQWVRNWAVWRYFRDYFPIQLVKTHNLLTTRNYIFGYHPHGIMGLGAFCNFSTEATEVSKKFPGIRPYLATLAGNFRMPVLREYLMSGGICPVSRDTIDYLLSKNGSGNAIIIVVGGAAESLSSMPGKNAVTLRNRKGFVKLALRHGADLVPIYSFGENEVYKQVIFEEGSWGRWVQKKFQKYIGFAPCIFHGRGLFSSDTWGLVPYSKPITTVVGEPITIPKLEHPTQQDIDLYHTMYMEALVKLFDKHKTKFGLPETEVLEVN
In words: Inhibition of human DGAT2.

The nature of data set [7]: Oral bioavailability in dog. It is filed as ADME, organism-based, Canis lupus familiaris. As to conditions: in vivo.
A further data set is filed under the species Canis familiaris. In words: Unbound clearance in dog. The format is ADME, organism-based, Canis lupus familiaris. The conditions noted are these: in vivo.
A short description of data set [8]: Clearance in dog. The format is ADME, organism-based, Canis lupus familiaris. As to conditions: in vivo.
The nature of data set [9]: Oral bioavailability in rat. It is filed as ADME, organism-based. The conditions noted are these: in vivo.
For data set [10], the species on record is Rattus norvegicus. In words: Unbound clearance in rat. The format is ADME, organism-based. The conditions noted are these: in vivo.
The nature of data set [11]: Clearance in rat. The format is ADME, organism-based. As to conditions: in vivo.
The test system of a further data set is Hepatocyte. Put plainly: Intrinsic clearance in human hepatocytes. The format is ADME, cell-based.
Data set [12] in a line: Apparent permeability in MDCK cells assessed as permeability from apical to basolateral side. The format is ADME, cell-based, Canis lupus familiaris. As to conditions: dog.
Data set [13] in a line: Lipophilicity, logD of the compound. The format is physicochemical. As to conditions: octanol/water.
The target of data set [14] is T5, Sterol O-acyltransferase 1 (Homo sapiens, UniProt P35610).
T5 sequence (P35610 whole entry): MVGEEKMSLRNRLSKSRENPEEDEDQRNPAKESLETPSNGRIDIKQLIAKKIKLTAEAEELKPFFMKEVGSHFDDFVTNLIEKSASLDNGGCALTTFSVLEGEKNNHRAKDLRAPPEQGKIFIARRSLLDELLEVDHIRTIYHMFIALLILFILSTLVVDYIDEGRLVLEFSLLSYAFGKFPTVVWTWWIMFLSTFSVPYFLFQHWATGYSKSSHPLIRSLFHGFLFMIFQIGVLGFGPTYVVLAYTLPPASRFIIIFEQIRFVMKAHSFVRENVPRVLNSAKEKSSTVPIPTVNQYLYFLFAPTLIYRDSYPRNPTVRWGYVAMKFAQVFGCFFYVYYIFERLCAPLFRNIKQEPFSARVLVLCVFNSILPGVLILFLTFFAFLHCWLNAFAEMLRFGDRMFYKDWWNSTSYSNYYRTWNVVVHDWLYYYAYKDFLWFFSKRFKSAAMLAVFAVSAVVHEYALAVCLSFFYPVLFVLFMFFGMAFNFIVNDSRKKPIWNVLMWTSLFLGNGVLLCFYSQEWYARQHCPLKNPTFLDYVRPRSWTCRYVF
Put plainly: Inhibition of human ACAT1.

The target in data set [15] is T1, Diacylglycerol O-acyltransferase 1. In words: Inhibition of human DGAT1.
Data set [16] in a line: Thermodynamic solubility of the compound after 24 hrs at pH 7.4. It is filed as physicochemical. The conditions noted are these: buffer, read-out: Therm_solubility.
The nature of data set [17]: Apparent permeability in human Caco2 cells assessed as permeability from apical to basolateral side. The format is ADME, cell-based. The conditions noted are these: Caco-2.

SMILES strings stand for the structures. ≈ marks a conversion by molar mass, not a printed value.

Cytochrome P450 2D6, sequence (P10635 whole entry): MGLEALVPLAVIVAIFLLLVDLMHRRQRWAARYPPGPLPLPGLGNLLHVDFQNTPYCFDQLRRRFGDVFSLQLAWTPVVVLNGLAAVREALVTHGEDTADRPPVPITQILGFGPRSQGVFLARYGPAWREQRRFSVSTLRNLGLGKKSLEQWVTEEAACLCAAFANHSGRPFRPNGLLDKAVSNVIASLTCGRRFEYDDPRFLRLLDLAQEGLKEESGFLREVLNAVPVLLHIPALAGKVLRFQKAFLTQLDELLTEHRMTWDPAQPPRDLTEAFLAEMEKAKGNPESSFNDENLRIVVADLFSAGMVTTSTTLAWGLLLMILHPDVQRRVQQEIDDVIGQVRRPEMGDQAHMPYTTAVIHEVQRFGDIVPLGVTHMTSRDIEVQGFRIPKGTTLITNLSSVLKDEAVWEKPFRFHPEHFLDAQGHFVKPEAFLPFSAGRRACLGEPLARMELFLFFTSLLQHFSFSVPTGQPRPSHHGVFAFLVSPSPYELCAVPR
Cytochrome P450 3A4, sequence (P08684 whole entry): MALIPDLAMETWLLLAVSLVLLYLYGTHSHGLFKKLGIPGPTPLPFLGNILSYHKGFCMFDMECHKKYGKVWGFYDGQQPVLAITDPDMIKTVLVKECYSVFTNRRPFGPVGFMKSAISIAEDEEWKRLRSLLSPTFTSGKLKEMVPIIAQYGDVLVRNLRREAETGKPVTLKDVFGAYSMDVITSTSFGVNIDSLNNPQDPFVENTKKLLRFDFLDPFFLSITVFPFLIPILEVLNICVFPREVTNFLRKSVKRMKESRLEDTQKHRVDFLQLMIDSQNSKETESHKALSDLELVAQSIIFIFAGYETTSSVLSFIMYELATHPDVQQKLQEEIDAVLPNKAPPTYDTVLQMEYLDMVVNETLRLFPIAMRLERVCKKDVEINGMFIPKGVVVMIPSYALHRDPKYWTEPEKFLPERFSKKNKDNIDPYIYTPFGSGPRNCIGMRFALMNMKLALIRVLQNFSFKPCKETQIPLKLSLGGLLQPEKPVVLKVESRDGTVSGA
Cytochrome P450 2C9, sequence (P11712 whole entry): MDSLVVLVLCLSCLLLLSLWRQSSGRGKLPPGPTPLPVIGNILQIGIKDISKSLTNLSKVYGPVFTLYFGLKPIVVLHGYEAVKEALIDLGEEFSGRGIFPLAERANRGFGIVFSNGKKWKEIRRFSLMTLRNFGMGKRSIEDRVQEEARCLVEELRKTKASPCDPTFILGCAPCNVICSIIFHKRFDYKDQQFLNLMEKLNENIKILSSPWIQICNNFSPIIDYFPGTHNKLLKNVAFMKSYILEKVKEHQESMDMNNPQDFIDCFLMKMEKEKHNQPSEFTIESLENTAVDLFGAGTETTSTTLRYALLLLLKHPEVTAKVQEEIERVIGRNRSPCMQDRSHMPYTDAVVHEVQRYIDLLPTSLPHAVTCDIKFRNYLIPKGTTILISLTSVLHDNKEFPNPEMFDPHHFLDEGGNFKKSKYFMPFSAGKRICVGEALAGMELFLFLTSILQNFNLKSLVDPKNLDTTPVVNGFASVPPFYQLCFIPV
Voltage-gated inwardly rectifying potassium channel KCNH2, sequence (Q12809 whole entry): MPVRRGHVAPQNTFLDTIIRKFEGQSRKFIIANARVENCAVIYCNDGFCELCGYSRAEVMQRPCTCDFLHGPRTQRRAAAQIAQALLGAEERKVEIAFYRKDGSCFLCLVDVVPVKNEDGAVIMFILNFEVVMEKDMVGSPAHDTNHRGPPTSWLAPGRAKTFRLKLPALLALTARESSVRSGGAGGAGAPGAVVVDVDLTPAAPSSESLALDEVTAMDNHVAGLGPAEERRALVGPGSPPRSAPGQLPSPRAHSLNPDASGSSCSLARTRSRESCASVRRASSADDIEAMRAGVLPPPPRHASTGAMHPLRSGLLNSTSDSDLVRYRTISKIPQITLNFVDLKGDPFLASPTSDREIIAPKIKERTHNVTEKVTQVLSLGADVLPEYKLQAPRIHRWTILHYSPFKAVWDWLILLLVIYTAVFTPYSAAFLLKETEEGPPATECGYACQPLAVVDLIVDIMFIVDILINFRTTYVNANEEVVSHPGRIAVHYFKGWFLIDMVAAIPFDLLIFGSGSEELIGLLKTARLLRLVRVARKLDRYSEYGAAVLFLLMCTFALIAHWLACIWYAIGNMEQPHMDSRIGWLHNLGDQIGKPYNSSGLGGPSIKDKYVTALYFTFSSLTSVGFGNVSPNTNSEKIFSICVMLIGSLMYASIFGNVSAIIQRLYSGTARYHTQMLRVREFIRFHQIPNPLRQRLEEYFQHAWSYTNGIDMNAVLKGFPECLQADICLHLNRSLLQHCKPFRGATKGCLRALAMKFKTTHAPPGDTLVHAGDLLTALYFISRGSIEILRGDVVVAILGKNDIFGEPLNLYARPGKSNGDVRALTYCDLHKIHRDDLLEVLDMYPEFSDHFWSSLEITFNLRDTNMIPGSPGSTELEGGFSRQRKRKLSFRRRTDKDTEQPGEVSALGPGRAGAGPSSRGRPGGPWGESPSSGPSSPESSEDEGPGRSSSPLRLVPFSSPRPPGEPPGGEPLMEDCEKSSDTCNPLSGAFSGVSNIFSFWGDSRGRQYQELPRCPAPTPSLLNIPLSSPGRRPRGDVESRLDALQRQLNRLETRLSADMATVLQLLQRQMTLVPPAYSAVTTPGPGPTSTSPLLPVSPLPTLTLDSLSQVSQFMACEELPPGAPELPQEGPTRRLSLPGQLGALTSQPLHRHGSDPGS
Cytochrome P450 2C19, sequence (P33261 whole entry): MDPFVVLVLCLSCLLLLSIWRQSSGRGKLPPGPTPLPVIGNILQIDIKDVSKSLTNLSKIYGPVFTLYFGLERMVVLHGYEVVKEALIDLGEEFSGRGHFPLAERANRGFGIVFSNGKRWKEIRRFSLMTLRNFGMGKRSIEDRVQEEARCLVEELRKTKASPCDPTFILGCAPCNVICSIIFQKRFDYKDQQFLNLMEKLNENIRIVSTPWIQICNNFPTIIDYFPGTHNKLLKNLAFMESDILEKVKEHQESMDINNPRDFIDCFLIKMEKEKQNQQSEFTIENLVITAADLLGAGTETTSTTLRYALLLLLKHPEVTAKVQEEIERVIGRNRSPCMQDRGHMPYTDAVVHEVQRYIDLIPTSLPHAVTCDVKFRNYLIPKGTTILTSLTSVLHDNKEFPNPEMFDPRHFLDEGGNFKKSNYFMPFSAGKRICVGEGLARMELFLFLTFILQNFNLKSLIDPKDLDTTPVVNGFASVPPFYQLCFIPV

For `O=C(O)C[C@H]1CC[C@@H](Oc2ccc(NC(=O)c3nnc(Nc4ccc(F)c(F)c4)o3)cn2)CC1`, the IC50 in data set [1] is 4 nM; in data set [2], 0.9 nM; in the data set filed under Rattus norvegicus [3], 0.2 nM; against Cytochrome P450 3A4, more than 10000 nM; on Cytochrome P450 2C19, more than 10000 nM; against Cytochrome P450 2D6, more than 10000 nM. The IC50 against Cytochrome P450 1A2 is more than 10000 nM; in data set [5], more than 30000 nM; against Cytochrome P450 2C9, more than 10000 nM; in data set [6] it was 28000 nM; in data set [14], 1500 nM; in [15], 7 nM. In the data set listed under Rattus norvegicus [4], the inhibition entry was “Dose-dependent effect”. Further, the bioavailability was 35% in data set [7] and 82% in data set [9]. For the same molecule, the CL free turned out to be 100 mL/min/kg in the data set filed under Canis familiaris and 230 mL/min/kg in the data set filed under Rattus norvegicus [10]. The clearance in data set [8] turned out to be 2.3 mL/min/kg; in data set [11] it was 0.7 mL/min/kg. For the same molecule, the “Intrinsic clearance (CLint)” value with Hepatocyte was less than 2 µL/min/mg. Besides, in [12], the Papp A→B is 5.1 ×10⁻⁶ cm/s. Moreover, the logD in data set [13] is 2.2. Also, the solubility thermodynamic at 24 h in [16] came to 4 µM (≈ 1.89 µg/mL).
For `O=C(Nc1ccc(O[C@H]2CC[C@@H](C(=O)O)CC2)cc1F)c1nnc(Nc2cc(F)c(F)cc2F)o1`, the bioavailability worked out at 76% in [7] and 85% in [9]. Besides, the CL free amounted to 1700 mL/min/kg in the data set listed under Canis familiaris and 200 mL/min/kg in the data set filed under Rattus norvegicus [10]. Besides, the results for the clearance in [8] and in [11] were 6.5 mL/min/kg and 0.4 mL/min/kg, respectively. Further, the “Intrinsic clearance (CLint)” value in the data set on Hepatocyte was less than 2 µL/min/mg. In addition, the Papp A→B in data set [17] came out at 33 ×10⁻⁶ cm/s. Further, the logD in [13] was found to be 1.9. Moreover, the IC50 came out at 310 nM in [14] and 3 nM in [15]. Besides, the solubility thermodynamic at 24 h in data set [16] is 69 µM (≈ 34.1 µg/mL).
